Assay results from paper PMC6487453 (ACS Central Science, 2019).

Biological target: T1, LTA4H (Homo sapiens, UniProt P09960)
T1 sequence (P09960 2-611): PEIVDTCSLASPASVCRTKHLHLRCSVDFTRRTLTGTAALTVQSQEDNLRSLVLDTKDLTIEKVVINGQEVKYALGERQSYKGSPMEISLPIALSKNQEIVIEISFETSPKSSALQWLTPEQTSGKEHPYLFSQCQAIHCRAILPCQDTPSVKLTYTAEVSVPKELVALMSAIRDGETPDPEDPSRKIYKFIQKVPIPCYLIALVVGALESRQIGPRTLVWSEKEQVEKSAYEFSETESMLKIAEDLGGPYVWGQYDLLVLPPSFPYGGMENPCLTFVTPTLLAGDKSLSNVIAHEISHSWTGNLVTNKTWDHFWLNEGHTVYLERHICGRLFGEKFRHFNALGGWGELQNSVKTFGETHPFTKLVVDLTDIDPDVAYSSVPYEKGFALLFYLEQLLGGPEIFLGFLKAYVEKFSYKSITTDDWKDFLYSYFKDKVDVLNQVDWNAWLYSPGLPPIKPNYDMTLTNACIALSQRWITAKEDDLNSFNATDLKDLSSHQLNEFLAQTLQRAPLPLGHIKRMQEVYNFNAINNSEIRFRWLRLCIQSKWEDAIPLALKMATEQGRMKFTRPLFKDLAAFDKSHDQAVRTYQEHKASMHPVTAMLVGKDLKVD
Assay: colorimetric peptidase assay, 4-nitroaniline absorption at […] nm
Type: biochemical
Conditions: 50 mM HEPES pH 7.5, 100 mM KCl

SMILES	colorimetric peptidase assay, 4-nitroaniline absorption at 410 nm (1 mM substrate)	colorimetric peptidase assay, 4-nitroaniline absorption at 410 nm (inhibitor, L-alanine 4-nitroanilide 1 mM, 460 nm light)
C[C@H](N)C(=O)Nc1ccc([N+](=O)[O-])cc1 [L-alanine 4-nitroanilide]	L-alanine 4-nitroanilide which is converted to the strongly absorbing 4-nitroaniline	–
c1ccc(/N=N/c2ccc(OCCN3CCCC3)cc2)cc1 [trans-LTA4H-Photoswitch]	–	trans-LTA4H-Photoswitch was a more potent inhibitor of LTA4H peptidase than the cis-isomer
